Activity calls are given as the source filed them.
What was measured:
[1] = species on record: Danio rerio; experiment: Toxicity in wild type zebrafish embryos assessed as head malformation at 5 ug/ml treated for 96 hrs post fertilization starting from 6 hrs post fertilization by inverted microscopic analysis relative to control; format: organism-based; conditions: in vivo
[2] = species on record: Danio rerio; experiment: Toxicity in wild type zebrafish embryos assessed as notochord at 5 ug/ml treated for 96 hrs post fertilization starting from 6 hrs post fertilization by inverted microscopic analysis relative to control; format: organism-based; conditions: in vivo
[3] = species on record: Danio rerio; experiment: Toxicity in wild type zebrafish embryos assessed as teratogenic embryo at 25 ug/ml treated for 96 hrs post fertilization starting from 6 hrs post fertilization by inverted microscopic analysis relative to control; format: organism-based; conditions: in vivo
[4] = species on record: Danio rerio; experiment: Toxicity in wild type zebrafish embryos assessed as blood circulation at 10 ug/ml treated for 96 hrs post fertilization starting from 6 hrs post fertilization by inverted microscopic analysis relative to control; format: organism-based; conditions: in vivo
[5] = species on record: Danio rerio; experiment: Toxicity in wild type zebrafish embryos assessed as growth retardation at 10 ug/ml treated for 96 hrs post fertilization starting from 6 hrs post fertilization by inverted microscopic analysis relative to control; format: organism-based; conditions: in vivo
[6] = species on record: Danio rerio; experiment: Toxicity in wild type zebrafish embryos assessed as normal embryo at 20 ug/ml treated for 96 hrs post fertilization starting from 6 hrs post fertilization by inverted microscopic analysis relative to control; format: organism-based; conditions: in vivo
[7] = species on record: Danio rerio; experiment: Toxicity in wild type zebrafish embryos assessed as heart beat at 25 ug/ml treated for 96 hrs post fertilization starting from 6 hrs post fertilization by inverted microscopic analysis relative to control; format: organism-based; conditions: in vivo
[8] = Toxicity in wild type zebrafish embryos assessed as dead embryo at 10 ug/ml treated for 96 hrs post fertilization starting from 6 hrs post fertilization by inverted microscopic analysis relative to control; format: organism-based, Danio rerio; conditions: in vivo, read-out: Activity
[9] = species on record: Danio rerio; experiment: Toxicity in wild type zebrafish embryos assessed as teratogenic embryo at 5 ug/ml treated for 96 hrs post fertilization starting from 6 hrs post fertilization by inverted microscopic analysis relative to control; format: organism-based; conditions: in vivo
[10] = species on record: Danio rerio; experiment: Toxicity in wild type zebrafish embryos assessed as notochord at 25 ug/ml treated for 96 hrs post fertilization starting from 6 hrs post fertilization by inverted microscopic analysis relative to control; format: organism-based; conditions: in vivo
[11] = species on record: Danio rerio; experiment: Toxicity in wild type zebrafish embryos assessed as teratogenic embryo at 50 ug/ml treated for 96 hrs post fertilization starting from 6 hrs post fertilization by inverted microscopic analysis relative to control; format: organism-based; conditions: in vivo
[12] = test system: Danio rerio; experiment: Toxicity in wild type zebrafish embryos assessed as pericardial edema at 10 ug/ml treated for 96 hrs post fertilization starting from 6 hrs post fertilization by inverted microscopic analysis relative to control; format: organism-based; conditions: in vivo
[13] = Toxicity in wild type zebrafish embryos assessed as dead embryo at 50 ug/ml treated for 96 hrs post fertilization starting from 6 hrs post fertilization by inverted microscopic analysis relative to control; format: organism-based, Danio rerio; conditions: in vivo, read-out: Activity
[14] = species on record: Danio rerio; experiment: Toxicity in wild type zebrafish embryos assessed as normal embryo at 5 ug/ml treated for 96 hrs post fertilization starting from 6 hrs post fertilization by inverted microscopic analysis relative to control; format: organism-based; conditions: in vivo
[15] = test system: Danio rerio; experiment: Toxicity in wild type zebrafish embryos assessed as pericardial edema at 25 ug/ml treated for 96 hrs post fertilization starting from 6 hrs post fertilization by inverted microscopic analysis relative to control; format: organism-based; conditions: in vivo
[16] = species on record: Danio rerio; experiment: Anti-melanogenic activity in wild type zebrafish 24 hrs post fertilization embryos assessed as decrease in body pigmentation at 5 to 25 ug/ml after 48 hrs; format: functional, organism-based
[17] = Toxicity in wild type zebrafish embryos assessed as dead embryo at 25 ug/ml treated for 96 hrs post fertilization starting from 6 hrs post fertilization by inverted microscopic analysis relative to control; format: organism-based, Danio rerio; conditions: in vivo, read-out: Activity
[18] = species on record: Danio rerio; experiment: Toxicity in wild type zebrafish embryos assessed as teratogenic embryo at 20 ug/ml treated for 96 hrs post fertilization starting from 6 hrs post fertilization by inverted microscopic analysis relative to control; format: organism-based; conditions: in vivo
[19] = species on record: Danio rerio; experiment: Toxicity in wild type zebrafish embryos assessed as eyes at 5 ug/ml treated for 96 hrs post fertilization starting from 6 hrs post fertilization by inverted microscopic analysis relative to control; format: organism-based; conditions: in vivo
[20] = species on record: Danio rerio; experiment: Toxicity in wild type zebrafish embryos assessed as head malformation at 10 ug/ml treated for 96 hrs post fertilization starting from 6 hrs post fertilization by inverted microscopic analysis relative to control; format: organism-based; conditions: in vivo
[21] = species on record: Danio rerio; experiment: Toxicity in wild type zebrafish embryos assessed as normal embryo at 10 ug/ml treated for 96 hrs post fertilization starting from 6 hrs post fertilization by inverted microscopic analysis relative to control; format: organism-based; conditions: in vivo
[22] = species on record: Danio rerio; experiment: Toxicity in wild type zebrafish embryos assessed as teratogenic embryo at 10 ug/ml treated for 96 hrs post fertilization starting from 6 hrs post fertilization by inverted microscopic analysis relative to control; format: organism-based; conditions: in vivo
[23] = test system: Danio rerio; experiment: Toxicity in wild type zebrafish embryos assessed as yolk edema at 10 ug/ml treated for 96 hrs post fertilization starting from 6 hrs post fertilization by inverted microscopic analysis relative to control; format: organism-based; conditions: in vivo
[24] = species on record: Danio rerio; experiment: Toxicity in wild type zebrafish embryos assessed as otoliths at 5 ug/ml treated for 96 hrs post fertilization starting from 6 hrs post fertilization by inverted microscopic analysis relative to control; format: organism-based; conditions: in vivo
[25] = test system: Melanocyte; experiment: Cytotoxicity against wild type zebrafish embryo melanocytes assessed as change in morphology at 2.5 mg/ml treated for 72 hrs post fertilization starting from 6 to 24 hrs post fertilization; format: cell-based, Danio rerio
[26] = species on record: Danio rerio; experiment: Toxicity in wild type zebrafish embryos assessed as otoliths at 10 ug/ml treated for 96 hrs post fertilization starting from 6 hrs post fertilization by inverted microscopic analysis relative to control; format: organism-based; conditions: in vivo
[27] = species on record: Danio rerio; experiment: Toxicity in wild type zebrafish embryos assessed as unhatched embryo at 20 ug/ml treated for 96 hrs post fertilization starting from 6 hrs post fertilization by inverted microscopic analysis relative to control; format: organism-based; conditions: in vivo
[28] = species on record: Danio rerio; experiment: Toxicity in wild type zebrafish embryos assessed as skeletal deformities at 25 ug/ml treated for 96 hrs post fertilization starting from 6 hrs post fertilization by inverted microscopic analysis relative to control; format: organism-based; conditions: in vivo
[29] = species on record: Danio rerio; experiment: Toxicity in wild type zebrafish embryos assessed as unhatched embryo at 5 ug/ml treated for 96 hrs post fertilization starting from 6 hrs post fertilization by inverted microscopic analysis relative to control; format: organism-based; conditions: in vivo
[30] = test system: Melanocyte; experiment: Anti-melanogenic activity in wild type zebrafish embryo melanocytes assessed as decrease in pigmentation at 2.5 mg/ml treated for 72 hrs post fertilization starting from 6 to 24 hrs post fertilization; format: functional, cell-based; conditions: Danio rerio
[31] = species on record: Danio rerio; experiment: Toxicity in wild type zebrafish embryos assessed as normal embryo at 25 ug/ml treated for 96 hrs post fertilization starting from 6 hrs post fertilization by inverted microscopic analysis relative to control; format: organism-based; conditions: in vivo
[32] = test system: Melanocyte; experiment: Cytotoxicity against wild type zebrafish embryo melanocytes assessed as barely visible cells at 12.5 ug/ml treated for 72 hrs post fertilization starting from 6 to 24 hrs post fertilization; format: cell-based, Danio rerio
[33] = test system: Danio rerio; experiment: Toxicity in wild type zebrafish embryos assessed as yolk edema at 20 ug/ml treated for 96 hrs post fertilization starting from 6 hrs post fertilization by inverted microscopic analysis relative to control; format: organism-based; conditions: in vivo
[34] = test system: Neutrophil; experiment: Cytotoxicity against mpx:GFP transgenic zebrafish 24 hrs post fertilization embryo neutrophils assessed as loss in neutrophil at 25 ug/ml relative to control; format: cell-based, Danio rerio
[35] = Toxicity in wild type zebrafish embryos assessed as dead embryo at 5 ug/ml treated for 96 hrs post fertilization starting from 6 hrs post fertilization by inverted microscopic analysis relative to control; format: organism-based, Danio rerio; conditions: in vivo, read-out: Activity
[36] = species on record: Danio rerio; experiment: Toxicity in wild type zebrafish embryos assessed as heart beat at 20 ug/ml treated for 96 hrs post fertilization starting from 6 hrs post fertilization by inverted microscopic analysis relative to control; format: organism-based; conditions: in vivo
[37] = species on record: Danio rerio; experiment: Toxicity in wild type zebrafish embryos assessed as skeletal deformities at 5 ug/ml treated for 96 hrs post fertilization starting from 6 hrs post fertilization by inverted microscopic analysis relative to control; format: organism-based; conditions: in vivo

O=c1cc(-c2ccccc2)c2ccc(O)cc2o1
0%: Activity [1] | Activity [2] | Activity [3] | Activity [4] | Activity [5] | Activity [7] | mortality at 10 ug/ml [8] | Activity [9] | Activity [10] | Activity [11] | Activity [12] | mortality at 50 ug/ml [13] | Activity [15] | mortality at 25 ug/ml [17] | Activity [18] | Activity [19] | Activity [20] | Activity [22] | Activity [23] | Activity [24] | Activity [26] | Activity [27] | Activity [28] | Activity [29] | Activity [33] | mortality at 5 ug/ml [35] | Activity [36] | Activity [37]
100%: Activity [6] | Activity [14] | Activity [21] | Activity [31]
Non-Toxic: Activity [25] | Activity [32] | Activity [34]
active: Activity [16] | Activity [30]

Oc1ccc(O)cc1 [HYDROQUINONE]
90%: Activity [4]
63.3%: mortality at 10 ug/ml [8]
80%: Activity [5] | Activity [26]
36.7%: Activity [22]
active: Activity [16]
6.7%: Activity [3]
100%: Activity [7] | Activity [9] | Activity [12] | mortality at 50 ug/ml [13] | Activity [15] | Activity [20] | Activity [27] | Activity [33] | Activity [36]
0%: Activity [1] | Activity [2] | Activity [6] | Activity [10] | Activity [11] | Activity [14] | Activity [19] | Activity [21] | Activity [23] | Activity [24] | Activity [29] | Activity [31] | mortality at 5 ug/ml [35] | Activity [37]
Non-Toxic: Activity [32]
93.3%: mortality at 25 ug/ml [17]
30%: Activity [18] | Activity [34]

O=c1cc(-c2ccccc2)c2c(O)cc(O)cc2o1
25%: Activity [11]
active: Activity [16] | Activity [30]
100%: Activity [6] | Activity [14] | Activity [21] | Activity [31]
Non-Toxic: Activity [25] | Activity [32] | Activity [34]
0%: Activity [1] | Activity [2] | Activity [3] | Activity [4] | Activity [5] | Activity [7] | mortality at 10 ug/ml [8] | Activity [9] | Activity [10] | Activity [12] | mortality at 50 ug/ml [13] | Activity [15] | mortality at 25 ug/ml [17] | Activity [18] | Activity [19] | Activity [20] | Activity [22] | Activity [23] | Activity [24] | Activity [26] | Activity [27] | Activity [28] | Activity [29] | Activity [33] | mortality at 5 ug/ml [35] | Activity [36] | Activity [37]

O=c1cc(CO)occ1O [KOJIC ACID]
Non-Toxic: Activity [25] | Activity [32] | Activity [34]
active: Activity [30]
100%: Activity [31]
0%: Activity [3] | Activity [7] | Activity [10] | Activity [15] | mortality at 25 ug/ml [17] | Activity [28]

Reference: ChEMBL document CHEMBL4177616, “Potent anti-melanogenic activity and favorable toxicity profile of selected 4-phenyl hydroxycoumarins in the zebrafish model and the computational molecular modeling studies” (Bioorg Med Chem, 2017)
